The values below come from US7632666B2 (priority 2005, dated 2009).

Where two headings read alike, the source gives them in different places.

Assay [1] relates to haloalkane dehalogenase DrbA. The class given is biochemical, Rhodopirellula baltica. Particulars: pH 8.2.
Assay [2] concerns the target haloalkane dehalogenase DmbC (Mycobacterium bovis, UniProt P64304). Format: biochemical. The conditions noted are these: pH 8.2.
Assay [3] deals with haloalkane dehalogenase DhmA (Mycobacterium avium, UniProt Q93K00). The class given is biochemical. The conditions noted are these: pH 8.2.
The test system of assay [4] is haloalkane dehalogenase DbeA. The class given is biochemical, Bradyrhizobium elkanii. The conditions noted are these: pH 8.2.
In assay [5] the target is haloalkane dehalogenase LinB (Sphingobium indicum, UniProt D4Z2G1). Format: biochemical, Sphingomonas paucimobilis UT26.
Assay [6] has as its target haloalkane dehalogenase DmbB (Mycobacterium bovis, UniProt P64302). Format: biochemical. The conditions noted are these: pH 8.2.
In assay [7] the target is haloalkane dehalogenase DbjA (Bradyrhizobium diazoefficiens, UniProt P59337). Format: biochemical, Bradyrhizobium japonicum USDA110.
Assay [8] addresses haloalkane dehalogenase DhaA (Rhodococcus rhodochrous, UniProt P0A3G2). The class given is biochemical, Rhodococcus rhodochrous NCIMB 13064.
The subject of assay [9] is haloalkane dehalogenases DmbA, DmbB, DmbC, DhlA, DhaA, DrbA, LinB, DhmA, DbjA and DbeA. The class given is biochemical.
Assay [10] addresses haloalkane dehalogenase DhlA (Xanthobacter autotrophicus, UniProt P22643). The class given is biochemical, Xanthobacter autotrophicus GJ10.
Assay [11] has as its target haloalkane dehalogenase LinB L177R (Sphingobium indicum, UniProt D4Z2G1, L177R). The class given is biochemical.
The target of assay [12] is haloalkane dehalogenase LinB L177A (Sphingobium indicum, UniProt D4Z2G1, L177A). Format: biochemical.
Assay [13] deals with haloalkane dehalogenase LinB L177S (Sphingobium indicum, UniProt D4Z2G1, L177S). The class given is biochemical.
For assay [14], the target named is haloalkane dehalogenase LinB L177V (Sphingobium indicum, UniProt D4Z2G1, L177V). The class given is biochemical.
The target in assay [15] is haloalkane dehalogenase LinB L177C (Sphingobium indicum, UniProt D4Z2G1, L177C). Format: biochemical.
Assay [16] has as its target haloalkane dehalogenase LinB wild type (Sphingobium indicum, UniProt D4Z2G1). The class given is biochemical, Sphingomonas paucimobilis UT26.
The target in assay [17] is haloalkane dehalogenase LinB L177F (Sphingobium indicum, UniProt D4Z2G1, L177F). The class given is biochemical.
Assay [18] deals with haloalkane dehalogenase LinB L177K (Sphingobium indicum, UniProt D4Z2G1, L177K). Format: biochemical.
The target in assay [19] is haloalkane dehalogenase LinB L177W (Sphingobium indicum, UniProt D4Z2G1, L177W). Format: biochemical.
Assay [20] concerns the target haloalkane dehalogenase LinB L177G (Sphingobium indicum, UniProt D4Z2G1, L177G). Format: biochemical.
Assay [21] deals with haloalkane dehalogenase LinB L177M (Sphingobium indicum, UniProt D4Z2G1, L177M). Format: biochemical.
The target of assay [22] is haloalkane dehalogenase LinB L177D (Sphingobium indicum, UniProt D4Z2G1, L177D). Format: biochemical.
The target of assay [23] is haloalkane dehalogenase LinB L177Y (Sphingobium indicum, UniProt D4Z2G1, L177Y). Format: biochemical.
Assay [24] has as its target haloalkane dehalogenase LinB L177Q (Sphingobium indicum, UniProt D4Z2G1, L177Q). Format: biochemical.
Assay [25] has as its target haloalkane dehalogenase LinB L177T (Sphingobium indicum, UniProt D4Z2G1, L177T). Format: biochemical.
Assay [26] has as its target haloalkane dehalogenase LinB L177H (Sphingobium indicum, UniProt D4Z2G1, L177H). The class given is biochemical.
Assay [27] addresses modified protein MUT01 with haloalkane dehalogenase activity (Rhodococcus rhodochrous, UniProt P0A3G2, A172V/C176G/F144A/G171R/INS140[…]/K175G/P142A/V245A/W141H). Format: biochemical. Particulars: pH 8.2.

Turning to `CCOC(=O)C(Br)CC` (racemic) [ethyl 2-bromobutyrate], the “E-values DrbA” value in assay [1] is on record as more than 200. Besides, the “E-values DmbC” value in assay [2] was more than 200. Moreover, in [3], the “E-values DhmA” value is listed as more than 200. Also, the “E-values DbeA” value in [4] is listed as more than 200. Also, the “E-values LinB” value in assay [5] and in assay [5] (pH 8.2) was more than 200 each time. The “E-values DmbB” value in [6] is more than 200. Also, the “E-values DbjA” value in [7] and in [7] (pH 8.2) was more than 200 each time. Further, the “E-values DhaA” value in assay [8] and in assay [8] (pH 8.2) was more than 200 in each case.

On to `CC(Br)C(=O)c1ccccc1` (racemic) [2-bromopropiophenone], for which, in assay [5], the “E-values LinB” value stood at 13. Moreover, the “E-values DbjA” value in assay [7] is listed as more than 200. Moreover, in assay [7] (pH 8.2), the “E-value, chiral recognition by DbjA” value is more than 200. Besides, the enantioselectivity entry in assay [9] is given as “excellent enantioselectivity”. Moreover, the “E-values DhaA” value in [8] is listed as more than 200.

For the molecule `COC(=O)C(C)Br` (racemic) [methyl 2-bromopropionate], the “E-values LinB” value in assay [5] turned out to be 52. For the same molecule, the “E-values DbjA” value in assay [7] is listed as more than 200. The enantioselectivity result in [9] is “excellent enantioselectivity”. In addition, in assay [8], the “E-values DhaA” value amounted to 68. Moreover, in assay [8] (pH 8.2), the “E-value, chiral recognition by DhaA” value is on record as more than 200.

In the case of `CCCC(C)Br` (racemic) [2-bromopentane], the “E-value, chiral recognition by DbeA” value in assay [4] is reported as 98. Also, the “E-values LinB” value in [5] came to 16. In addition, in [7], the “E-values DbjA” value was 145. Further, in assay [7] (pH 8.2), the “E-value, chiral recognition by DbjA” value is given as more than 145. In addition, the “E-values DhaA” value in assay [8] was found to be 7. Also, the “E-values DhlA” value in assay [10] amounted to 5.5.

For `CCCCBr` [1-bromobutane], the “Relative activities (% of wt) L177R” value in assay [11] was 165 % of wt. Besides, in [12], the “Relative activities (% of wt) L177A” value is given as 356 % of wt. The “Relative activities (% of wt) L177S” value in assay [13] was 381 % of wt. In assay [14], the “Relative activities (% of wt) L177V” value is reported as 132 % of wt. The “Relative activities (% of wt) L177C” value in [15] is listed as 243 % of wt. In addition, in assay [16], the “Relative activities (% of wt) wt1” value is 100 % of wt and the “Relative activities (% of wt) wt2” value is given as 100 % of wt. Besides, the “Relative activities (% of wt) L177F” value in [17] is reported as 243 % of wt. The “Relative activities (% of wt) L177K” value in assay [18] is reported as 201 % of wt. In assay [19], the “Relative activities (% of wt) L177W” value is on record as 60 % of wt. Besides, the “Relative activities (% of wt) L177G” value in [20] is on record as 380 % of wt. For the same molecule, the “Relative activities (% of wt) L177M” value in assay [21] is 227 % of wt. Further, the “Relative activities (% of wt) L177D” value in [22] is given as 347 % of wt. In assay [23], the “Relative activities (% of wt) L177Y” value is 112 % of wt. Also, the “Relative activities (% of wt) L177Q” value in assay [24] is recorded as 458 % of wt. Besides, the “Relative activities (% of wt) L177T” value in assay [25] was 553 % of wt. The “Relative activities (% of wt) L177H” value in assay [26] is reported as 224 % of wt.

`CCOC(=O)C(C)Br` (racemic) [ethyl 2-bromopropionate]: in assay [27], the “E-value, chiral recognition by protein MUT01” value is more than 200. Further, the “E-values LinB” value in assay [5] is listed as 97. Further, in assay [7], the “E-values DbjA” value was found to be 194. Besides, the enantioselectivity result in assay [9] is on record as “excellent enantioselectivity”. Moreover, the “E-values DhaA” value in assay [8] was 59.

As to `C=C(C)CCl` [3-chloro-2-methylpropene], the “Relative activities (% of wt) L177R” value in assay [11] is 83 % of wt. Also, in [12], the “Relative activities (% of wt) L177A” value is listed as 199 % of wt. In addition, the “Relative activities (% of wt) L177S” value in assay [13] is listed as 65 % of wt. Further, in assay [14], the “Relative activities (% of wt) L177V” value was 79 % of wt. The “Relative activities (% of wt) L177C” value in assay [15] is 157 % of wt. Further, in assay [16], the “Relative activities (% of wt) wt1” value was 100 % of wt and the “Relative activities (% of wt) wt2” value is recorded as 100 % of wt. In assay [17], the “Relative activities (% of wt) L177F” value was 98 % of wt. The “Relative activities (% of wt) L177K” value in assay [18] is reported as 110 % of wt. In [19], the “Relative activities (% of wt) L177W” value is recorded as 91 % of wt. The “Relative activities (% of wt) L177G” value in [20] was 200 % of wt. The “Relative activities (% of wt) L177M” value in assay [21] is 100 % of wt. Further, the “Relative activities (% of wt) L177D” value in assay [22] was 25 % of wt. Also, the “Relative activities (% of wt) L177Y” value in assay [23] was 78 % of wt. The “Relative activities (% of wt) L177Q” value in [24] is reported as 138 % of wt. Besides, the “Relative activities (% of wt) L177T” value in assay [25] was 96 % of wt. In addition, the “Relative activities (% of wt) L177H” value in assay [26] was 82 % of wt.
